Measured values taken from ChEMBL document CHEMBL1145561, “Pyrrolo[1,2-b]pyridazin-2-ones as potent inhibitors of HCV NS5B polymerase” (Bioorg Med Chem Lett, 2008).

Key:
[1] = system: Hepatitis C virus; assay: Inhibition of HCV 1b NS5B RNA polymerase; design: species or system Hepatitis C virus subtype 1b
[2] = (§1) Metabolic stability in human liver microsomes assessed as half life at 5 uM; assay type: ADME, Microsome; conditions: liver microsomes
[3] = system: Hepatitis C virus; assay: Antiviral activity against HCV 1b in human Huh7/C24 cells after 72 hrs by replicon cell assay; assay type: functional, organism-based, Hepacivirus hominis; conditions: genotype 1b, Huh-7, 72 h
[4] = Metabolic stability in human liver microsomes assessed as remains after 60 mins at 5 uM; assay type: ADME, Microsome; conditions: read-out: Stability
[5] = Cytotoxicity against human Huh7/C24 cells after 72 hrs; assay type: cell-based, Huh-7
[6] = Apparent permeability from apical to basolateral side in human Caco-2 cells at 10 uM; assay type: ADME, cell-based
[7] = Oral bioavailability in cynomolgus monkey at 1 mg/kg; assay type: ADME, organism-based, Macaca fascicularis; conditions: in vivo
[8] = system: Cynomolgus monkey; assay: AUC (infinity) in cynomolgus monkey at 1 mg/kg, iv; assay type: ADME, organism-based, Macaca fascicularis, Plasma; design: time infinity, dose 1 mg/kg, route intravenous; conditions: in vivo
[9] = Metabolic stability in cynomolgus monkey liver microsomes assessed as half life at 1 uM; assay type: ADME, Macaca fascicularis, Microsome
[10] = Clearance in cynomolgus monkey at 1 mg/kg, iv; assay type: ADME, organism-based, Macaca fascicularis; design: dose 1 mg/kg, route intravenous; conditions: in vivo
[11] = system: Cynomolgus monkey; assay: AUC (infinity) in cynomolgus monkey at 1 mg/kg, po; assay type: ADME, organism-based, Macaca fascicularis, Plasma; design: time infinity, dose 1 mg/kg, route oral; conditions: in vivo
[12] = Solubility at pH 7.5; assay type: physicochemical; conditions: buffer
[13] = Metabolic stability in cynomolgus monkey liver microsomes assessed as remains after 60 mins at 1 uM; assay type: ADME, Macaca fascicularis, Microsome; conditions: read-out: Stability
[14] = system: Liver microsomes; assay: as §1; assay type: ADME, Microsome; conditions: microsomes, 5 µM

Structure (SMILES)	IC50 [1] [nM]	half-life at 5 µM [2] [min]	EC50 [3] [nM]	remaining at 1 h, 5 µM [4] [%]	Papp A→B at 10 µM [6] [×10⁻⁶ cm/s]	bioavailability [7] [%]	AUC [8] [ng·h/mL]	half-life at 1 µM [9] [min]	clearance [10] [mL/min/kg]	AUC [11] [ng·h/mL]	solubility [12] [µM]	remaining at 1 h, 1 µM [13] [%]	t1/2 [14] [min]	CC50 at 72 h [5] [nM]
CS(=O)(=O)Nc1ccc2c(c1)S(=O)(=O)N=C(c1c(O)c3cccn3n(Cc3ccc(F)c(Cl)c3)c1=O)N2	25	> 60	22	102										> 1000
CN(c1ccc2c(c1)S(=O)(=O)N=C(c1c(O)c3cccn3n(Cc3ccc(F)cc3)c1=O)N2)S(C)(=O)=O	130	> 60	330	90	0.9	6	1780	> 60	9	107	> 60	90		> 10000
CC(C)CCn1c(=O)c(C2=NS(=O)(=O)c3cc(NS(C)(=O)=O)ccc3N2)c(O)c2cc(C#N)cn21	320													
CC(C)CCn1nc(-c2cccs2)c(O)c(C2=Nc3ccc(NS(C)(=O)=O)cc3S(=O)(=O)N2)c1=O					0.03	2	1330			30	> 100			
CC(C)CCn1c(=O)c(C2=NS(=O)(=O)c3cc(NS(C)(=O)=O)ccc3N2)c(O)c2cc(F)cn21	27	> 60	19	78										> 1000
CS(=O)(=O)Nc1ccc2c(c1)S(=O)(=O)N=C(c1c(O)c3cccn3n(Cc3ccc(F)cc3)c1=O)N2	< 10	> 60		86	0.1	1	539	> 60	31	6	> 100	90		> 1000
O=c1c(C2=NS(=O)(=O)c3cc(C4CCCS4(=O)=O)ccc3N2)c(O)c2cccn2n1Cc1ccc(F)cc1 (racemic)	130	> 60	380	100										> 33000
CC(C)NCC(O)COc1cccc2ccccc12 (stereo unspecified) [PROPRANOLOL]					10									

More lines, main results first:

IC50 [1] [nM]	half-life at 5 µM [2] [min]	EC50 [3] [nM]	remaining at 1 h, 5 µM [4] [%]	Papp A→B at 10 µM [6] [×10⁻⁶ cm/s]	bioavailability [7] [%]	AUC [8] [ng·h/mL]	half-life at 1 µM [9] [min]	clearance [10] [mL/min/kg]	AUC [11] [ng·h/mL]	solubility [12] [µM]	remaining at 1 h, 1 µM [13] [%]	t1/2 [14] [min]	Structure (SMILES)	CC50 at 72 h [5] [nM]
980	14	5300		11	63	20500	11	49	12900	> 200			CC(C)CCn1c(=O)c(C2=NS(=O)(=O)c3ccccc3N2)c(O)c2cccn21	> 100000
110	> 60	190	55	4.3	7	1060	60	16	79	> 100			CC(C)CCn1c(=O)c(C2=NS(=O)(=O)c3cc(N(C)S(C)(=O)=O)ccc3N2)c(O)c2cccn21	> 33000
2200		17000											COc1ccc2c(c1)S(=O)(=O)N=C(c1c(O)c3cccn3n(CCC(C)C)c1=O)N2	> 100000
< 10	42	8.5		0.2			> 60		83	> 100	66		CC(C)CCn1c(=O)c(C2=Nc3ccc(NS(C)(=O)=O)cc3S(=O)(=O)N2)c(O)c2cccn21	> 1000
< 10	10	5		0.7	2	1210	14	14	25	> 100			CC(C)(C)CCn1c(=O)c(C2=NS(=O)(=O)c3cc(NS(C)(=O)=O)ccc3N2)c(O)c2cccn21	> 1000
160	59	96		0.8	4	3770	> 60	5	141	> 100	87		CC(C)CCn1c(=O)c(C2=NS(=O)(=O)c3cc(NS(=O)(=O)C4CC4)ccc3N2)c(O)c2cccn21	> 33000
850												45	O=c1c(C2=NS(=O)(=O)c3ccccc3N2)c(O)c2cccn2n1Cc1ccc(F)cc1	
60	49	120											CN(c1ccc2c(c1)S(=O)(=O)N=C(c1c(O)c3cccn3n(CCC(C)(C)C)c1=O)N2)S(C)(=O)=O	> 33000
